Laboratory results taken from US6113941A, “Substained release microcapsule of physiologically active compound which is slightly water soluble at pH 6 to 8” (Takeda Chemical Industries, Ltd., priority 1994, dated 2000).

Key:
[1] = Oral administration to rats, plasma concentration and absorption ratio (Example 1, Table 1); assay type: in vivo; settings: rat, SD-strain male rats, 20 mg/kg, suspended in 0.5% methylcellulose
Method: The antiulcer drug 2-[[[3-methyl-4-(2,2,3,3,-tetrafluoropropoxy)-2-pyridyl]methyl]thio]benzimidazole (hereinafter sometimes referred to as Compound A) (400 mg) and lactic acid/glycollic acid copolymer (lactic acid/glycollic acid=50/50, average molecular weight calculated as polystyrene=5400) (3.6 g) were dissolved in dichloromethane (5 ml) to prepare an o/w type emulsion using a homogenizer in an aqueous solution (800 ml) of 0.1% polyvinyl alcohol (PVA). Then, the emulsion was slowly stirred with a conventional propeller stirrer. After dichloromethane vaporized and the microcapsules hardened, the microcapsules were collected by centrifugation and at the same time washed with purified water. The collected microcapsules were freeze-dried for a day to obtain powdery microcapsules.
The drug content in the total amount of the microcapsules was 10.0%, and the entrapment was 100%. The microcapsules were suspended in 0.5% methylcellulose, and orally administered to SD-strain male rats (body weight: 250 g) in a dose of 20 mg/kg. A suspension of the drug alone in 0.5% methylcellulose was also administered for comparison. In both cases, the plasma concentration of the drug and the absorption ratio were determined.

[2] = Solubility of Compound A at the pH in the small intestine (stated in words); assay type: physicochemical
[3] = Oral administration to rats, plasma concentration and absorption ratio (Example 2, Table 2); assay type: in vivo, SD-strain male rats; settings: rat, 20 mg/kg
Method: From this emulsion, a w/o/w type emulsion was prepared using a homogenizer in 0.5% PVA aqueous solution (1000 ml). Then, the emulsion was slowly stirred with a conventional propeller stirrer for 3 hours. After dichloromethane vaporized while w/o type microcapsules hardened, the microcapsules were centrifuged and collected and at the same time washed with purified water. The collected microcapsules were freeze-dried for a day to obtain powdery microcapsules.
The microcapsules were suspended in 0.5% methylcellulose, and orally administered to SD-strain male rats (body weight: 250 g) in a dose of 20 mg/kg. For comparative purposes, a suspension of the drug alone in 0.5% methylcellulose was also administered. In both cases, the plasma concentration of the drug and the absorption ratio were determined.

[4] = pH no higher than 3; cited from earlier work

| Compound | Fa ([1]; in vivo) [%] | Cmax ([1]; plasma, read-out: Cmax (peak blood level)) [ng/mL] | Tmax ([1]; plasma, read-out: Tmax (time required to obtain the peak blood level)) [min] | solubility [2] | Fa ([3]; in vivo) [%] | Cmax ([3]; plasma) [ng/mL] | Tmax ([3]; plasma) [min] | solubility in water [4] |
| --- | --- | --- | --- | --- | --- | --- | --- | --- |
| Cc1c(OCC(F)(F)C(F)F)ccnc1CSc1nc2ccccc2[nH]1 [Compound A, 2-[[[3-methyl-4-(2,2,3,3,-tetrafluoropropoxy)-2-pyridyl]methyl]thio]benzimidazole] | 5.4 | 218 | 15 | very low solubility | 5.4 | 218 | 15 | – |
| COc1ccc2c(c1)c(CC(=O)O)c(C)n2C(=O)c1ccc(Cl)cc1 [indomethacin] | – | – | – | – | – | – | – | not readily soluble |
